# Results reported in US20230066011A1, “PYRROLOPYRIMIDINE DERIVATIVE, AND PHARMACEUTICAL COMPOSITION FOR PREVENTING OR TREATING PROTEIN KINASE-RELATED DISEASE COMPRISING SAME AS ACTIVE INGREDIENT” (VORONOI CO., LTD., priority 2019, published 2023).
# Columns and labels:
# MDA-MB-468 cell line = assay: Inhibition of proliferation of MDA-MB-468 cancer cells (Cell Titer-Glo); format: cell-based; conditions: Homo sapiens, MDA-MB-468, 72 hours
# How it was run: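 Growth inhibition over 72 h: cells seeded at 2,000/well and dosed at eleven 3-fold-spaced final concentrations from 10.000000 μM. Read-out is ATP luminescence (Cell Titer-Glo, 10 min, room temperature), with GI50 derived from it.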
# human GST-CLK1 = biological target: T1, human GST-CLK1 (Homo sapiens, UniProt P49759); assay: GST-CLK1 enzyme inhibition, ADP-Glo kinase assay; format: biochemical; conditions: ATP 10 μM, GST-CLK1 129-end
# T1 construct: purified human GST-CLK1 (129-end, SignalChem) enzyme; purchased SignalChem
# How it was run: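 ADP-Glo luminescence read-out, relative to untreated solvent control, gave IC50 (nM) from triplicate data sets. Reactions ran an hour at 25° C with 3 ng GST-CLK1 (residues 129-end), 10 μM ATP and specific substrate in Tris-HCl pH 7.4 buffer with MgCl2, BSA and DTT.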
# human DYRK1A and tau = assay: Inhibition of tau phosphorylation, ClariCELL Kinase Cell-Based Assay, HEK 293 cells expressing human DYRK1A and tau; conditions: for inhibition at 1 µM: HEK293, read-out: % inhibition at 1 uM, tau phosphorylation, compound 1 uM; for inhibition at 0.25 µM / inhibition at 0.5 µM: HEK293, tau phosphorylation; for inhibition at 0.25 µM: compound 0.25 uM; for inhibition at 0.5 µM: compound 0.5 uM
# How it was run: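 Cell-based service assay: HEK 293 cells transiently expressing human DYRK1A and tau were treated with compound and lysed. Released tau was plate-captured and its phosphorylation quantified by ELISA with a phospho-tau-specific antibody.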
# T1 sequence (P49759 129-484 limits assumed): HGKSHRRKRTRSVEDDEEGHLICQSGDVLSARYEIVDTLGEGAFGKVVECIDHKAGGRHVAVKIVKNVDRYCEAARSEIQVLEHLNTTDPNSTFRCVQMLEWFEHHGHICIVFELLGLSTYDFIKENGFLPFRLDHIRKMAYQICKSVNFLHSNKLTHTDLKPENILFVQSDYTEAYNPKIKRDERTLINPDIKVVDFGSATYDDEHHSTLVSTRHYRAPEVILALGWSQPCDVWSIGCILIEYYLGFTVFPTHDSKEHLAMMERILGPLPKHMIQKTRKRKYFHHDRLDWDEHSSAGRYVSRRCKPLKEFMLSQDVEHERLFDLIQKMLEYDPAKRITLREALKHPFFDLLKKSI
SMILES,GI50 (MDA-MB-468 cell line),IC50 (human GST-CLK1),inhibition at 1 µM (human DYRK1A and tau),inhibition at 0.25 µM (human DYRK1A and tau),inhibition at 0.5 µM (human DYRK1A and tau)
CCN1CCP(=O)(c2ccc(Nc3nc(C4CC4)c4c(C#N)c[nH]c4n3)c(OC)c2)CC1 [Example 261],301 to 1000 nM,< 0.1 µM,–,–,–
"COc1cc(S(=O)(=O)N2CCOCC2)ccc1Nc1nc(C2CC2)c2c(C#N)c[nH]c2n1 [Example 223, 4-cyclopropyl-2-((2-methoxy-4-(morpholinosulfonyl)phenyl)amino)-7H-pyrrolo[2,3-d]pyrimidine-5-carbonitrile]",301 to 1000 nM,0.301 to 1 µM,–,–,–
"C=CCNc1nc(Nc2ccc(S(=O)(=O)N3CCC(N4CCOCC4)CC3)cc2OC)nc2[nH]cc(C#N)c12 [Example 361, 4-(allylamino)-2-((2-methoxy-4-((4-morpholino-piperidin-1-yl)sulfonyl)phenyl)amino)-7H-pyrrolo[2,3-d]pyrimidine-5-carbonitrile]",< 50 nM,< 0.1 µM,–,–,–
"COCCNc1nc(Nc2ccc(C(=O)N3CCC(N4CCOCC4)CC3)c3c2OCC3)nc2[nH]cc(C(F)(F)F)c12 [Example 443, (7-((4-((2-methoxyethyl)amino)-5-(trifluoromethyl)-7H-pyrrolo[2,3-d]pyrimidin-2-yl)amino)-2,3-dihydrobenzo-furan-4-yl)(4-morpho-linopiperidin-1-yl)methanone]",301 to 1000 nM,< 0.1 µM,–,–,–
"CNc1nc(Nc2ccc(C(=O)N3CCC(N4CCOCC4)CC3)c3c2OCCO3)nc2[nH]cc(C(F)(F)F)c12 [Example 238, (8-((4-(methylamino)-5-(trifluoromethyl)-7H-pyrrolo[2,3-d]pyrimidin-2-yl)amino)-2,3-dihydrobenzo[b][1,4]dioxin-5-yl)(4-morpholinopiperidin-1-yl)methanone]",–,< 0.1 µM,–,–,–
"O=C(c1ccc(Nc2nc(NCC3CC3)c3c(C(F)(F)F)c[nH]c3n2)c2c1CCO2)N1CCC(N2CCOCC2)CC1 [Example 461, (7-((4-((cyclo-propylmeth-yl)amino)-5-(trifluoromethyl)-7H-pyrrolo[2,3-d]pyrimidin-2-yl)amino)-2,3-dihydrobenzo-furan-4-yl)(4-morpho-linopiperidin-1-yl)methanone]",–,< 0.1 µM,72.2%,18.2%,46.9%
"CNc1nc(Nc2ccc(S(=O)(=O)N3CCC(N4CCOCC4)CC3)cc2OC)nc2[nH]cc(C(F)(F)F)c12 [Example 157, N^2-(2-methoxy-4-((4-morpholinopiperidin-1-yl)sulfonyl)phenyl)-N^4-methyl-5-(trifluoromethyl)-7H-pyrrolo[2,3-d]pyrimidine-2,4-diamine 2,2,2-trifluoroacetate]",–,< 0.1 µM,83.9%,41.2%,71%
"O=C(c1ccc(Nc2nc(NC3CCCCC3)c3c(C(F)(F)F)c[nH]c3n2)c2c1OCCO2)N1CCN(C2COC2)CC1 [Example 415, (8-((4-(cyclo-hexylamino)-5-(trifluoromethyl)-7H-pyrrolo[2,3-d]pyrimidin-2-yl)amino)-2,3-dihydrobenzo[b] [1,4]dioxin-5-yl) (4-(oxetan-3-yl)piperazin-1-yl)methanone]",101 to 300 nM,0.301 to 1 µM,–,–,–
COc1cc(S(=O)(=O)N2CCC(N3CCOCC3)CC2)ccc1Nc1nc(C2CC2)c2c(C(F)(F)F)c[nH]c2n1 [Example 226],301 to 1000 nM,0.301 to 1 µM,–,–,–
"CCNc1nc(Nc2ccc(S(=O)(=O)N3CCC(N4CCOCC4)CC3)cc2OC)nc2[nH]cc(C(F)(F)F)c12 [Example 158, N^4-ethyl-N^2-(2-methoxy-4-((4-morpholinopiperidin-1-yl)sulfonyl)phenyl)-5-(trifluoromethyl)-7H-pyrrolo[2,3-d]pyrimidine-2,4-diamine 2,2,2-trifluoroacetate]",–,< 0.1 µM,66.8%,25.4%,59.7%
"CNc1nc(Nc2ccc(P3(=O)CCN(C4CC4)CC3)cc2OC)nc2[nH]cc(C(F)(F)F)c12 [Example 411, 1-cyclopropyl-4-(3-methoxy-4-((4-(methylamino)-5-(trifluoromethyl)-7H-pyrrolo[2,3-d]pyrimidin-2-yl)amino)phenyl)-1,4-azaphosphinane-4-oxide]",–,< 0.1 µM,70.8%,28.5%,48.9%
"COCCNc1nc(Nc2ccc(C(=O)N3CCN(C4COC4)CC3)c3c2OCCO3)nc2[nH]cc(C(F)(F)F)c12 [Example 403, (8-((4-((2-methoxyethyl)-amino)-5-(trifluoromethyl)-7H-pyrrolo[2,3-d]pyrimidin-2-yl)amino)-2,3-dihydrobenzo[b] [1,4]dioxin-5-yl) (4-(oxetan-3-yl)piperazin-1-yl)methanone]",301 to 1000 nM,< 0.1 µM,–,–,–
"CCNc1nc(Nc2ccc(C(=O)N3CC[C@H](N4CCOCC4)C3)c3c2OCC3)nc2[nH]cc(C(F)(F)F)c12 [Example 475, (S)-(7-((4-(ethylamino)-5-(trifluoromethyl)-7H-pyrrolo[2,3-d]pyrimidin-2-yl)amino)-2,3-dihydrobenzo-furan-4-yl)(3-morpholino-pyrrolidin-1-yl)methanone]",–,< 0.1 µM,86.8%,42.6%,65.3%
COc1cc(P2(=O)CCN(C3CC3)CC2)ccc1Nc1nc(NC2CCCC2)c2c(C(F)(F)F)c[nH]c2n1 [Example 413],–,0.301 to 1 µM,–,–,–
"CCCNc1nc(Nc2ccc(S(=O)(=O)N3CCC(N4CCOCC4)CC3)cc2OC)nc2[nH]cc(C(F)(F)F)c12 [Example 161, N^2-(2-methoxy-4-((4-morpholinopiperidin-1-yl)sulfonyl)phenyl)-N^4-propyl-5-(trifluoromethyl)-7H-pyrrolo[2,3-d]pyrimidine-2,4-diamine]",–,–,50%,0%,27.9%
"CCNc1nc(Nc2ccc(C(=O)N3CCC(N4CCOCC4)CC3)c3c2OCC3)nc2[nH]cc(C#N)c12 [Example 347, 4-(ethylamino)-2-((4-(4-morpholino-piperidine-1-carbonyl)-2,3-dihydro-benzofuran-7-yl)amino)-7H-pyrrolo[2,3-d]pyrimidine-5-carbonitrile]",–,< 0.1 µM,51.5%,24.7%,42.6%
"COc1cc(P2(=O)CCN(C3CCOCC3)CC2)ccc1Nc1nc(NC2CC2)c2c(C(F)(F)F)c[nH]c2n1 [Example 435, 4-(4-((4-(cyclo-propylamino)-5-(trifluoromethyl)-7H-pyrrolo[2,3-d]pyrimidin-2-yl)amino)-3-methoxyphenyl)-1-(tetrahydro-2H-pyran-4-yl)-1,4-azaphosphinane 4-oxide]",–,< 0.1 µM,73.4%,22.7%,55.5%
"CCCNc1nc(Nc2ccc(C(=O)N3CCC(N4CCOCC4)CC3)c3c2OCCO3)nc2[nH]cc(C#N)c12 [Example 138, 2-((8-(4-morpholinopiperidine-1-carbonyl)-2,3-dihydrobenzo[b][1,4]dioxin-5-yl)amino)-4-(propylamino)-7H-pyrrolo[2,3-d]pyrimidine-5-carbonitrile]",–,< 0.1 µM,–,–,–
"CNc1nc(Nc2ccc(C(=O)N3CC[C@H](N4CCOCC4)C3)c3c2OCC3)nc2[nH]cc(C(F)(F)F)c12 [Example 236, (S)-(7-((4-(methylamino)-5-(trifluoromethyl)-7H-pyrrolo[2,3-d]pyrimidin-2-yl)amino)-2,3-dihydrobenzofuran-4-yl)(3-morpholinopyrrolidin-1-yl)methanone]",–,< 0.1 µM,67%,34.1%,59.5%
